Measured values from patent US20240246967A1, “AXL COMPOUNDS” (ARCUS BIOSCIENCES, INC., priority 2021, published 2024).

Each compound was assayed against T1, Axl (Homo sapiens, UniProt P30530) (assay: HTRF KinEASE-TK biochemical potency assay, AXL). Conditions: 5 nM AXL, 700 μM ATP, 800 nM TK Substrate-biotin.
T1 sequence (P30530 26-894): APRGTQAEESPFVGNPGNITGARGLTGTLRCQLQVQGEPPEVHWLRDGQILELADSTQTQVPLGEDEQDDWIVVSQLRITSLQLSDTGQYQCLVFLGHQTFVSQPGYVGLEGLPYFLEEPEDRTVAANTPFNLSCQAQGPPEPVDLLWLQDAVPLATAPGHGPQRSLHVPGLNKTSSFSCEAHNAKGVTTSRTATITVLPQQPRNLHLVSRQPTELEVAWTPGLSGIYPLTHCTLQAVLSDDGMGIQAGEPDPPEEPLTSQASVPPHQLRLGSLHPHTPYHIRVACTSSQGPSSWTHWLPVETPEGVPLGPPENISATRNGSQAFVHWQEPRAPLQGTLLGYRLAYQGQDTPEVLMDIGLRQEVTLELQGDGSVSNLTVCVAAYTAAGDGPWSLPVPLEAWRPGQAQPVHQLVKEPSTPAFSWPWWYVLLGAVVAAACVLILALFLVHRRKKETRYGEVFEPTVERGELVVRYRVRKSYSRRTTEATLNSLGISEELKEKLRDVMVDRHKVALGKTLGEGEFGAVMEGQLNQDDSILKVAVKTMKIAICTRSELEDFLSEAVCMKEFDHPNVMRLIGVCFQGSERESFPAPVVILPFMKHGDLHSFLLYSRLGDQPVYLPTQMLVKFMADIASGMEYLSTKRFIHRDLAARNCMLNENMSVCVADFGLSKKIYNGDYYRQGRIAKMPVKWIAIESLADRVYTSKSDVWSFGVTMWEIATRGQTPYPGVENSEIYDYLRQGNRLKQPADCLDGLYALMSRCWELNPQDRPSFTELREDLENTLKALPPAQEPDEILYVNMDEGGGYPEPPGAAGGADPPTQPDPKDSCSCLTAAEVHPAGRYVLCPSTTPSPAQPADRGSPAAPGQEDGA
Parameters: purchased Invitrogen
Description: Purified recombinant human AXL, TYRO3 and MER proteins were purchased from Invitrogen™. 10 nM AXL, 2 nM TYRO3 or MER were incubated with varying concentrations of compounds in 50 mM HEPES, pH 7.4, 10 mM MgCl2, 0.01% BSA, 1 mM DTT and 2% DMSO in a total volume of 20 μl in a 384-well microplate (Corning™ #3640) at RT for 1 h. The AXL, TYRO3 and MER enzymatic reaction was initiated by transferring 10 μl of enzyme and compound mixture into 10 μl of 1.6 μM TK Substrate-biotin (HTRF® KinEASE-TK kit, Cisbio) and 1400 μM ATP pre-incubated in 50 mM HEPES, pH 7.4, 10 mM MgCl2, 0.01% BSA, 1 mM DTT in a 384-well microplate (Corning™ #3640) at RT, giving the final reaction conditions: 5 nM AXL, 1 nM TYRO3 or MER, 800 nM TK Substrate-biotin and 700 μM ATP in 50 mM HEPES, pH 7.4, 10 mM MgCl2, 0.01% BSA, 1 mM DTT and 1% DMSO with varying concentrations of compounds. Following 2 h incubation at RT, the AXL, TYRO3 and MER enzymatic reaction was stopped by transfer of 10 μl of reaction into 10 μl of detection mix (400 nM Streptavidin-XL665, 200-fold dilution TK Antibody-Cryptate and detection buffer, HTRF® KinEASE-TK kit, Cisbio) in a white 384-well microplate (Perkin Elmer, OptiPlate 384). After 1 h incubation at RT, the plate was put into a plate reader (Evision) to read at 665/620 nm (acceptor/donor) for HTRF. The value of the DMSO blank (MIN inhibition=100% activity) was used as a negative control. The positive control was established by adding 5 μl of enzyme and DMSO mixture into 10 μl of detection mix followed by addition of 5 μl of TK Substrate-biotin and ATP mixture (MAX inhibition=0% activity). To calculate the percent activity, Equation 1 was used. Ratio 665/620 is the value at a given compound concentration: […]

IC50, < 100 nM:
CC1(N2CCC[C@H]2CO)CCc2ccc(-c3cnc4[nH]nc(-c5ccc(S(=O)(=O)C6CC6)cc5)c4c3)cc2CC1 (stereo partly drawn) [Example 4, [(2S)-1-(2-{3-[4-(Cyclopropanesulfonyl)phenyl]-1H-pyrazolo[3,4-b]pyridin-5-yl}-7-methyl-6,7,8,9-tetrahydro-5H-benzo[7]annulen-7-yl)pyrrolidin-2-yl]methanol]
C[C@H]1CCCN1C1(C)CCc2ccc(-c3cnc4[nH]nc(-c5ccc(S(=O)(=O)C6CC6)cc5)c4c3)cc2CC1 (stereo partly drawn) [Example 5, (2S)-1-(2-{3-[4-(Cyclopropanesulfonyl)phenyl]-1H-pyrazolo[3,4-b]pyridin-5-yl}-7-methyl-6,7,8,9-tetrahydro-5H-benzo[7]annulen-7-yl)-2-methylpyrrolidine]
CCC1(N2CCC[C@H]2C)CCc2ccc(-c3cnc4[nH]nc(-c5ccc(S(=O)(=O)C6CC6)cc5)c4c3)cc2CC1 (stereo partly drawn) [Example 6, (2R)-1-(2-{3-[4-(Cyclopropanesulfonyl)phenyl]-1H-pyrazolo[3,4-b]pyridin-5-yl}-7-ethyl-6,7,8,9-tetrahydro-5H-benzo[7]annulen-7-yl)-2-methylpyrrolidine]
CC1(N2CCC2)CCc2ccc(-c3cnc4[nH]nc(-c5ccc(S(=O)(=O)C6CC6)cc5)c4c3)cc2CC1 (centres unmarked) [Example 7, 1-(2-{3-[4-(Cyclopropanesulfonyl)phenyl]-1H-pyrazolo[3,4-b]pyridin-5-yl}-7-methyl-6,7,8,9-tetrahydro-5H-benzo[7]annulen-7-yl)azetidine]
C[C@@H]1CCCN1C1(C)CCc2ccc(-c3cnc4[nH]nc(-c5ccc(S(=O)(=O)C(F)(F)F)cc5)c4c3)cc2CC1 (stereo partly drawn) [Example 8, (2R)-2-Methyl-1-{7-methyl-2-[3-(4-trifluoromethanesulfonylphenyl)-1H-pyrazolo[3,4-b]pyridin-5-yl]-6,7,8,9-tetrahydro-5H-benzo[7]annulen-7-yl}pyrrolidine]
CC(C)(O)c1ccc(-c2n[nH]c3ncc(-c4ccc5c(c4)CCC(N4CCCC4)CC5)cc23)cn1 (centres unmarked) [Example 9, 2-(5-{5-[7-(Pyrrolidin-1-yl)-6,7,8,9-tetrahydro-5H-benzo[7]annulen-2-yl]-1H-pyrazolo[3,4-b]pyridin-3-yl}pyridin-2-yl)propan-2-ol]
CC(C)(O)c1ccc(-c2n[nH]c3ncc(-c4ccc5c(c4)CCN(C4CCCC4)CC5)cc23)cn1 [Example 10, 2-{5-[5-(3-Cyclopentyl-2,3,4,5-tetrahydro-1H-3-benzazepin-7-yl)-1H-pyrazolo[3,4-b]pyridin-3-yl]pyridin-2-yl}propan-2-ol]
CC(C)(O)c1ccc(-c2n[nH]c3ncc(-c4ccc5c(c4)CCC(N4CCCC4)CC5)cc23)cc1Cl (centres unmarked) [Example 11, 2-(2-Chloro-4-{5-[7-(pyrrolidin-1-yl)-6,7,8,9-tetrahydro-5H-benzo[7]annulen-2-yl]-1H-pyrazolo[3,4-b]pyridin-3-yl}phenyl)propan-2-ol]
CC(C)(O)c1ccc(-c2n[nH]c3ncc(-c4ccc5c(c4)CCN(C4CCCC4)CC5)cc23)cc1Cl [Example 12, 2-{2-Chloro-4-[5-(3-cyclopentyl-2,3,4,5-tetrahydro-1H-3-benzazepin-7-yl)-1H-pyrazolo[3,4-b]pyridin-3-yl]phenyl}propan-2-ol]
CC(C)(O)c1ccc(-c2n[nH]c3ncc(-c4ccc5c(c4)CCN(C4CCCC4)CC5)cc23)cc1C(F)(F)F [Example 16, 2-{4-[5-(3-Cyclopentyl-2,3,4,5-tetrahydro-1H-3-benzazepin-7-yl)-1H-pyrazolo[3,4-b]pyridin-3-yl]-2-(trifluoromethyl)phenyl}propan-2-ol]
CC(C)(O)c1ccc(-c2n[nH]c3ncc(-c4ccc5c(c4)CCN(C4CCCC4)CC5)cc23)c(F)c1 [Example 17, 2-{4-[5-(3-Cyclopentyl-2,3,4,5-tetrahydro-1H-3-benzazepin-7-yl)-1H-pyrazolo[3,4-b]pyridin-3-yl]-3-fluorophenyl}propan-2-ol]
C[C@@H]1CCCN1C1CCc2ccc(-c3cnc4[nH]nc(-c5ccc(C(C)(C)O)c(C(F)(F)F)c5)c4c3)cc2CC1 (stereo partly drawn) [Example 20, 2-[4-(5-{7-[(2R)-2-Methylpyrrolidin-1-yl]-6,7,8,9-tetrahydro-5H-benzo[7]annulen-2-yl}-1H-pyrazolo[3,4-b]pyridin-3-yl)-2-(trifluoromethyl)phenyl]propan-2-ol]
CC(C)(O)c1ccc(-c2n[nH]c3ncc(-c4ccc5c(c4)CCC(N4CCC[C@@H]4CO)CC5)cc23)cc1Cl (stereo partly drawn) [Example 21, 2-[2-Chloro-4-(5-{7-[(2R)-2-(hydroxymethyl)pyrrolidin-1-yl]-6,7,8,9-tetrahydro-5H-benzo[7]annulen-2-yl}-1H-pyrazolo[3,4-b]pyridin-3-yl)phenyl]propan-2-ol]
C[C@@H]1CCCN1C1(C)CCc2ccc(-c3cnc4[nH]nc(-c5ccc(C(C)(C)O)nc5)c4c3)cc2CC1 (stereo partly drawn) [Example 22, 2-[5-(5-{7-Methyl-7-[(2R)-2-methylpyrrolidin-1-yl]-6,7,8,9-tetrahydro-5H-benzo[7]annulen-2-yl}-1H-pyrazolo[3,4-b]pyridin-3-yl)pyridin-2-yl]propan-2-ol]
CS(=O)(=O)N1CCC(c2n[nH]c3ncc(-c4ccc5c(c4)CCC(N4CCCC4)CC5)cc23)CC1 (centres unmarked) [Example 23, 1-Methanesulfonyl-4-{5-[7-(pyrrolidin-1-yl)-6,7,8,9-tetrahydro-5H-benzo[7]annulen-2-yl]-1H-pyrazolo[3,4-b]pyridin-3-yl}piperidine]
C[C@H]1CCCN1C1CCc2ccc(-c3cnc4[nH]nc(-c5ccc(S(=O)(=O)C6CC6)cc5)c4c3)cc2CC1 (stereo partly drawn) [Example 24, 3-(4-(Cyclopropylsulfonyl)phenyl)-5-(7-((S)-2-methylpyrrolidin-1-yl)-6,7,8,9-tetrahydro-5H-benzo[7]annulen-2-yl)-1H-pyrazolo[3,4-b]pyridine]
C[C@@H]1CCCN1C1(C)CCc2ccc(-c3cnc4[nH]nc(-c5ccc(S(=O)(=O)C6CC6)c(F)c5)c4c3)cc2CC1 (stereo partly drawn) [Example 25, (2R)-1-(2-{3-[4-(Cyclopropanesulfonyl)-3-fluorophenyl]-1H-pyrazolo[3,4-b]pyridin-5-yl}-7-methyl-6,7,8,9-tetrahydro-5H-benzo[7]annulen-7-yl)-2-methylpyrrolidine]
O=S(=O)(c1ccc(-c2n[nH]c3ncc(-c4ccc5c(c4)CCN(C4CCOCC4)CC5)cc23)cc1)C1CC1 [Example 26, 7-{3-[4-(Cyclopropanesulfonyl)phenyl]-1H-pyrazolo[3,4-b]pyridin-5-yl}-3-(oxan-4-yl)-2,3,4,5-tetrahydro-1H-3-benzazepine]
O=S(=O)(c1ccc(-c2n[nH]c3ncc(-c4ccc5c(c4)CCN(CC4CCOC4)CC5)cc23)cc1)C1CC1 (centres unmarked) [Example 27, 7-{3-[4-(Cyclopropanesulfonyl)phenyl]-1H-pyrazolo[3,4-b]pyridin-5-yl}-3-[(oxolan-3-yl)methyl]-2,3,4,5-tetrahydro-1H-3-benzazepine]
CS(=O)(=O)c1ccc(-c2n[nH]c3ncc(-c4ccc5c(c4)CCN(C4CCCC4)CC5)cc23)cc1 [Example 30, 3-Cyclopentyl-7-(3-(4-(methylsulfonyl)phenyl)-1H-pyrazolo[3,4-b]pyridin-5-yl)-2,3,4,5-tetrahydro-1H-benzo[d]azepine]
